Source: patent publication US20250051347A1, “BIFUNCTIONAL CHIMERIC HETEROCYCLIC COMPOUND AND USE THEREOF AS ANDROGEN RECEPTOR DEGRADER” (Hinova Pharmaceuticals, Inc., priority 2021, published 2025)
Like-named read-outs stand apart in the source and are kept apart here.

How the values were obtained:
[1] = target: T1, androgen receptor (AR) splicing variant AR-v7 (Homo sapiens, UniProt P10275); test: Degradation activity on androgen receptor splicing variant AR-v7 in 22RV1 cells (ELISA); assay type: cell-based; settings: AR-v7 degradation in 22RV1 cells, 48 h, class symbols
T1 construct: The degradation activity of compounds on AR-v7 in 22RV1 cells; host or cells: 22RV1 cells
T1 sequence (P10275 1-644 isoform P10275-3): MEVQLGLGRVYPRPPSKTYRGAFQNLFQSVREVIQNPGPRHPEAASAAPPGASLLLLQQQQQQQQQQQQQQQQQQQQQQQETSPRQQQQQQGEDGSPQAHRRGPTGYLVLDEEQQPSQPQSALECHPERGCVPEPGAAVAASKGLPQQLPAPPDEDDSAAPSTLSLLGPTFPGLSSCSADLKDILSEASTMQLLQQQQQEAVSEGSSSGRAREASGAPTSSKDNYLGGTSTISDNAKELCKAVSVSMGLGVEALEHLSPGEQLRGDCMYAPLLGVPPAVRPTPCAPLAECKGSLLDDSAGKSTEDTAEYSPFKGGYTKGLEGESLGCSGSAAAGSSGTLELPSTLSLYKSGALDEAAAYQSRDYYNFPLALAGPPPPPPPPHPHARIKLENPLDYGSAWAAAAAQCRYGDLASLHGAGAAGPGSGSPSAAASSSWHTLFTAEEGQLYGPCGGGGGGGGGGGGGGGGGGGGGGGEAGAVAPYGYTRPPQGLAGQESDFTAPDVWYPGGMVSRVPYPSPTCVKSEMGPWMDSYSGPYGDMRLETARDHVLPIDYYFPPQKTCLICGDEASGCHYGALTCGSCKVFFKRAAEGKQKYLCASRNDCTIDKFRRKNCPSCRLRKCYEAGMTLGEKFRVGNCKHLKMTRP

[2] = Homo sapiens, 22Rv1, 144 h, read-out: 22RV1 IC50 (nM), 22RV1 cells, 6 days culture, CCK-8, OD 450 nm

Compound	IC50 (22RV1 cells; [2])	DC50 [1]	IC50 (22RV1 cells; read-out: 22RV1 IC50, 22RV1 cells, 6 days culture, CCK-8, OD 450 nm)
CN1CCN(c2nccc(COc3ccc(C(C)(C)c4ccc(OCCCNc5ccc6c(c5)C(=O)N(C5CCC(=O)NC5=O)C6=O)cc4)cc3)n2)CC1 (centres unmarked) [Example 72]	37 nM	11 to 100 nM	
Cc1nc(-c2ncc(F)cc2Oc2ccc(C(C)(C)c3ccc(O[C@H]4C[C@H](Nc5ccc6c(c5)C(=O)N(C5CCC(=O)NC5=O)C6=O)C4)cc3)cc2)no1 (some centres unmarked) [Example 512]	8 nM	< 10 nM	
CC(C)(c1ccc(OCc2ccnc(-n3ccnn3)n2)cc1)c1ccc(O[C@H]2C[C@@H](Nc3ccc4c(c3)C(=O)N(C3CCC(=O)NC3=O)C4=O)C2)cc1 (some centres unmarked) [Example 445, 5-(((1s,3s)-3-(4-(2-(4-((2-(1H-1,2,3-triazol-1-yl)pyrimidin-4-yl)methoxy)phenyl)propan-2-yl)phenoxy)cyclobutyl)amino)-2-(2,6-dioxopiperidin-3-yl)isoindolin-1,3-dione]	5 nM	< 10 nM	
CC(C)(c1ccc(OCc2ccnc(N3CCOCC3)n2)cc1)c1ccc(OC2CC(Nc3ccc4c(c3)C(=O)N(C3CCC(=O)NC3=O)C4=O)C2)cc1 (centres unmarked) [Example 396, 2-(2,6-dioxopyridin-3-yl)-5-(1s,3s)-3-(4-(2-(4-(2-morpholinylpyrimidin-4-yl)methoxy)phenyl)propan-2-yl)phenoxy)cyclobutyl)amino)isoindol-1,3-dione]		< 10 nM	23 nM
CC(C)(c1ccc(OCc2ccnc(N3CC(N4CCC4)C3)n2)cc1)c1ccc(O[C@H]2C[C@@H](Nc3ccc4c(c3)C(=O)N(C3CCC(=O)NC3=O)C4=O)C2)cc1 (some centres unmarked) [Example 410]	6 nM	< 10 nM	
Cn1cc(-c2nccc(COc3ccc(C(C)(C)c4ccc(O[C@H]5C[C@@H](Nc6ccc7c(c6)C(=O)N(C6CCC(=O)NC6=O)C7=O)C5)cc4)cc3)n2)cn1 (some centres unmarked) [Example 270]	10 nM	< 10 nM	
CC(O)c1ccc(Oc2ccc(C3(c4ccc(O[C@H]5C[C@H](Nc6ccc7c(c6)C(=O)N(C6CCC(=O)NC6=O)C7=O)C5)cc4)CCCC3)cc2)nn1 (some centres unmarked) [Example 103]	2 nM	< 10 nM	
CNc1cnc(Oc2ccc(C(C)(C)c3ccc(O[C@H]4C[C@H](Nc5ccc6c(c5)C(=O)N(C5CCC(=O)NC5=O)C6=O)C4)cc3)cc2)cn1 (some centres unmarked) [Example 551]	12 nM	11 to 100 nM	
CC(C)(c1ccc(OCc2cccc(C(O)C3CC3)n2)cc1)c1ccc(O[C@H]2C[C@H](Nc3ccc4c(c3)C(=O)N(C3CCC(=O)NC3=O)C4=O)C2)cc1 (stereo partly drawn) [Example 116, 5-(((trans)-3-(4-(2-(4-((6-(cyclopropyl(hydroxyl)methyl)pyridin-2-yl)methoxy)phenyl)propan-2-yl)phenoxy)cyclobutyl)amino)-2-(2,6-dioxopiperidin-3-yl)isoindolin-1,3-dione]	17 nM	< 10 nM	
CN1CCN(c2ccc(Oc3ccc(C(C)(C)c4ccc(O[C@H]5C[C@H](Nc6ccc7c(c6)C(=O)N(C6CCC(=O)NC6=O)C7=O)C5)cc4)cc3)nn2)CC1 (some centres unmarked) [Example 425]	16 nM	< 10 nM	
CC(O)c1ccc(Oc2ccc(C3(c4ccc(O[C@H]5C[C@H](Nc6ccc7c(c6)C(=O)N(C6CCC(=O)NC6=O)C7=O)C5)cc4)CCOCC3)cc2)nn1 (some centres unmarked) [Example 105]	0.2 nM	< 10 nM	
CCC(CC)(c1ccc(Oc2cnc(C(C)=O)cn2)cc1)c1ccc(O[C@H]2C[C@@H](Nc3ccc4c(c3)C(=O)N(C3CCC(=O)NC3=O)C4=O)C2)cc1 (some centres unmarked) [Example 296]	7 nM	< 10 nM	
O=C1CCC(N2C(=O)c3ccc(N[C@H]4C[C@@H](Oc5ccc(S(=O)(=O)c6ccc(OCc7ccnc(N8CC9(COC9)C8)n7)cc6)cc5)C4)cc3C2=O)C(=O)N1 (some centres unmarked) [Example 363, 5-(((1s,3s)-3-(4-((4-((2-(2-oxa-6-azaspiro[3.3]heptane-6-yl)pyrimidin-4-yl)methoxy)phenyl)sulfonyl)phenoxy)cyclobutyl)amino)-2-(2,6-dioxopiperidin-3-yl)isoindolin-1,3-dione]	24 nM	< 10 nM	
CC(=O)c1nccc(COc2ccc(C(C)(C)c3ccc(OC[C@H](CCCl)Nc4ccc5c(c4)C(=O)N(C4CCC(=O)NC4=O)C5=O)cc3)cc2)n1 (some centres unmarked) [Example 306]	13 nM	< 10 nM	
Cc1cncc(Oc2ccc(C(C)(C)c3ccc(O[C@H]4C[C@H](Nc5ccc6c(c5)C(=O)N(C5CCC(=O)NC5=O)C6=O)C4)cc3)cc2)n1 (some centres unmarked) [Example 536, 2-(2,6-dioxopiperidin-3-yl)-5-(((1r,3r)-3-(4-(4-((6-methylpyrazin-2-yl)oxy)phenyl)propan-2-yl)phenoxy)amino)isoindolin-1,3-dione]	5 nM	< 10 nM	
CC(C)(c1ccc(Oc2ncnc(N3CC4(COC4)C3)c2F)cc1)c1ccc(O[C@H]2C[C@H](Nc3ccc4c(c3)C(=O)N(C3CCC(=O)NC3=O)C4=O)C2)cc1 (some centres unmarked) [Example 572]	16 nM	< 10 nM	
CC1CN(c2nccc(COc3ccc(C(C)(C)c4ccc(OC5CC(Nc6ccc7c(c6)C(=O)N(C6CCC(=O)NC6=O)C7=O)C5)cc4)cc3)n2)CCN1C (centres unmarked) [Example 448]	11 nM	11 to 100 nM	
CN1CCN(c2nccc(COc3ccc(C(C)(C)c4ccc(OC5CC(Nc6ccc7c(c6)C(=O)N(C6CCC(=O)NC6=O)C7=O)C5)cc4)cc3)n2)CC1 (centres unmarked) [Example 393]	10 nM	11 to 100 nM	
CCC(=O)c1ncc(Oc2ccc(C(C)(C)c3ccc(O[C@H]4C[C@H](Nc5ccc6c(c5)C(=O)N(C5CCC(=O)NC5=O)C6=O)C4)cc3)cc2)cn1 (some centres unmarked) [Example 427]	6 nM	< 10 nM	
CCC(CC)(c1ccc(OCCCNc2ccc3c(c2)C(=O)N(C2CCC(=O)NC2=O)C3=O)cc1)c1ccc(OCc2ccnc(C(C)=O)n2)cc1 (centres unmarked) [Example 350, 5-((3-(4-(3-(4-((2-acetylpyrimidin-4-yl)methoxy)phenyl)pentan-3-yl)phenoxy)propyl)amino)-2-(2,6-dioxopiperidin-3-yl)isoindolin-1,3-dione]	30 nM	11 to 100 nM	
Cc1nnc(-c2cccc(COc3ccc(C(C)(C)c4ccc(O[C@H]5C[C@H](Nc6ccc7c(c6)C(=O)N(C6CCC(=O)NC6=O)C7=O)C5)cc4)cc3)n2)o1 (some centres unmarked) [Example 463]	11 nM	< 10 nM	
Cc1nc(-c2ccnc(Oc3ccc(C(C)(C)c4ccc(O[C@H]5C[C@@H](Nc6ccc7c(c6)C(=O)N(C6CCC(=O)NC6=O)C7=O)C5)cc4)cc3)n2)no1 (some centres unmarked) [Example 173, 2-(2,6-dioxopiperidin-3-yl)-5-(((1s,3s)-3-(4-(2-(4-((4-(5-methyl-1,2,4-oxadiazol-3-yl)pyrimidin-2-yl)oxy)phenyl)propan-2-yl)phenoxy)cyclobutyl)amino)isoindolin-1,3-dione]	13 nM	11 to 100 nM	
CC(C)(c1ccc(OCCCNc2ccc3c(c2)C(=O)N(C2CCC(=O)NC2=O)C3=O)cc1)c1ccc(OCc2ccnc(N)n2)cc1 (centres unmarked) [Example 74, 5-((3-(4-(2-(4-((2-aminopyrimidin-4-yl)methoxy)phenyl)propan-2-yl)phenoxy)propyl)amino)-2-(2,6-dioxopiperidin-3-yl)isoindolin-1,3-dione]	31 nM	11 to 100 nM	
CC(=O)c1cnc(Oc2ccc(C(C)(C)c3ccc(O[C@H]4C[C@@H](Nc5ccc6c(c5)C(=O)N(C5CCC(=O)NC5=O)C6=O)C4)cc3)cc2)cn1 (some centres unmarked) [Example 130]	13 nM	< 10 nM	
CCC(CC)(c1ccc(Oc2ccc(C(C)=O)nn2)cc1)c1ccc(O[C@H]2C[C@H](Nc3ccc4c(c3)C(=O)N(C3CCC(=O)NC3=O)C4=O)C2)cc1 (some centres unmarked) [Example 176, 5-(((1r,3r)-3-(4-(3-(4-((6-acetylpyridazine-3-yl)oxy)phenyl)pentan-3-yl)phenoxy)cyclobutyl)amino)-2-(2,6-dioxopiperidin-3-yl)isoindolin-1,3-dione]	2 nM	< 10 nM	
CC(C)(c1ccc(OCc2cccc(-c3nnco3)n2)cc1)c1ccc(O[C@H]2C[C@H](Nc3ccc4c(c3)C(=O)N(C3CCC(=O)NC3=O)C4=O)C2)cc1 (some centres unmarked) [Example 470, 5-(((1r,3r)-3-(4-(2-(4-((6-(1,3,4-oxadiazol-2-yl)pyridin-2-yl)methoxy)phenyl)propan-2-yl)phenoxy)cyclobutyl)amino)-2-(2,6-dioxopiperidin-3-yl)isoindolin-1,3-dione]	7 nM	< 10 nM	
CC(C)(c1ccc(OCCCNc2ccc3c(c2)C(=O)N(C2CCC(=O)NC2=O)C3=O)cc1)c1ccc(OCc2ccnc(-n3cncn3)n2)cc1 (centres unmarked) [Example 389, 5-((3-(4-(2-(4-((2-(1H-1,2,4-triazol-1-yl)pyrimidin-4-yl)methoxy)phenyl)propan-2-yl)phenoxy)propyl)amino)-2-(2,6-dioxopiperidin-3-yl)isoindol-1,3-dione]	54 nM	11 to 100 nM	
CNc1nccc(COc2ccc(C(C)(C)c3ccc(OC4CC(Nc5ccc6c(c5)C(=O)N(C5CCC(=O)NC5=O)C6=O)C4)cc3)cc2)n1 (centres unmarked) [Example 392]	21 nM	11 to 100 nM	
